In patent US20210101881A1 (Ancureall Pharmaceutical (Shanghai) Co., Ltd., priority 2018, published 2021):
pIC50: −log10 of the molar value. Read-outs that look alike come from different tables or passages of the source.

How the values were obtained:
Experiment in all cases: Growth inhibition of CDK9-positive tumor cell line in vitro
NCI-H460 = type: cell-based; settings: Human lung cancer, read-out: Inhibitory activity (IC50) on growth in vitro, NCI-H460
Procedure: (§1) Measurement of the Inhibitory Activity of the Present Compound on the Growth of Various Types of CDK9-Positive Tumor Cell Lines In Vitro
(§2) The inventors selected representative CDK9-positive tumor cell lines for further determination of the compound activity. All cell lines used came from ATCC, JCRB, DSMZ and Chinese Academy of Sciences Cell Bank (ZK). Cell culture condition and method were based on the requirements of each cell line. No more than 3 passages were carried out in each culture in vitro. Monoclonal purification and STR identification of the cell line were conducted if necessary.

KYSE70 = type: cell-based; settings: KYSE-70, Human esophageal cancer, read-out: Inhibitory activity (IC50) on growth in vitro, KYSE70
Procedure: as §1, §2

MFM-223 = type: cell-based; settings: Human breast cancer, read-out: Inhibitory activity (IC50) on growth in vitro, MFM-223
Procedure: as §1, §2

NCI-H1581 = type: cell-based; settings: Human lung cancer, read-out: Inhibitory activity (IC50) on growth in vitro, NCI-H1581
Procedure: as §1, §2

BT-474 = type: cell-based; settings: Human breast cancer, read-out: Inhibitory activity (IC50) on growth in vitro, BT-474
Procedure: as §1, §2

8305C = type: cell-based; settings: Human thyroid cancer, read-out: Inhibitory activity (IC50) on growth in vitro, 8305C
Procedure: as §1, §2

MCF7 = type: cell-based; settings: Human breast cancer, read-out: Inhibitory activity (IC50) on growth in vitro, MCF7
Procedure: as §1, §2

JIMT-1 = type: cell-based; settings: Human breast cancer, read-out: Inhibitory activity (IC50) on growth in vitro, JIMT-1
Procedure: as §1, §2

Colo205 = type: cell-based; settings: COLO 205, Human intestinal cancer, read-out: Inhibitory activity (IC50) on growth in vitro, Colo205
Procedure: as §1, §2

B-CPAP = type: cell-based; settings: BCPAP, Human thyroid cancer, read-out: Inhibitory activity (IC50) on growth in vitro, B-CPAP
Procedure: as §1, §2

Sk-ov-3 = type: cell-based; settings: Human ovarian cancer, read-out: Inhibitory activity (IC50) on growth in vitro, Sk-ov-3
Procedure: as §1, §2

PC-9 = type: cell-based; settings: Human lung cancer, read-out: Inhibitory activity (IC50) on growth in vitro, PC-9
Procedure: as §1, §2

NCI-N87 = type: cell-based; settings: Human stomach cancer, read-out: Inhibitory activity (IC50) on growth in vitro, NCI-N87
Procedure: as §1, §2

BT-549 = type: cell-based; settings: Human breast cancer, read-out: Inhibitory activity (IC50) on growth in vitro, BT-549
Procedure: as §1, §2

CA Ski = type: cell-based; settings: Human cervical cancer, read-out: Inhibitory activity (IC50) on growth in vitro, CA Ski
Procedure: as §1, §2

LN229 = type: cell-based; settings: LN-229, Human glioma, read-out: Inhibitory activity (IC50) on growth in vitro, LN229
Procedure: as §1, §2

HCT-116 = type: cell-based; settings: Human intestinal cancer, read-out: Inhibitory activity (IC50) on growth in vitro, HCT-116
Procedure: as §1, §2

KG-1 = type: cell-based; settings: Human acute myeloid leukemia, read-out: Inhibitory activity (IC50) on growth in vitro, KG-1
Procedure: as §1, §2

NCI-H1781 = type: cell-based; settings: Human lung cancer, read-out: Inhibitory activity (IC50) on growth in vitro, NCI-H1781
Procedure: as §1, §2

A549 = type: cell-based, Human
Procedure: as §1, §2

NCI-H1993 = type: cell-based; settings: Human lung cancer, read-out: Inhibitory activity (IC50) on growth in vitro, NCI-H1993
Procedure: as §1, §2

AN3-CA = type: cell-based; settings: Human endometrial cancer, read-out: Inhibitory activity (IC50) on growth in vitro, AN3-CA
Text: Test Example 3. Measurement of the Inhibitory Activity of the Present Compound on the Growth of Various Types of CDK9-Positive Tumor Cell Lines In Vitro
as §2, with “Tumor cell line is an effective cell model for studying the inhibitory activity of a drug on tumor growth in vitro. The” for “The”
Drug treatment, MTT assay and IC50 calculation were performed in accordance with Test Example 1.

[1] = Human lung cancer, A549, read-out: Inhibitory activity (IC50) on growth in vitro, A549

SMILES	pIC50 (NCI-H460)	pIC50 (KYSE70)	pIC50 (MFM-223)	pIC50 (NCI-H1581)	pIC50 (BT-474)	pIC50 (8305C)	pIC50 (MCF7)	pIC50 (JIMT-1)	pIC50 (Colo205)	pIC50 (B-CPAP)	pIC50 (Sk-ov-3)	pIC50 (PC-9)	pIC50 (NCI-N87)	pIC50 (BT-549)	pIC50 (CA Ski)	pIC50 (LN229)	pIC50 (HCT-116)	pIC50 (KG-1)	pIC50 (NCI-H1781)	pIC50 (NCI-H1993)	also measured
NC(=O)c1cn(-c2nc(Nc3cccc(N4CCN(C5CCOCC5)CC4)c3)ncc2F)c2ccccc12 [Compound 140, 1-(5-fluoro-2-{3-[4-(tetrahydro-pyran-4-yl)-piperazin-1-yl]-phenylamino}-pyrimidin-4-yl)-1H-indole-3-carboxamide]	8.00 to 9.00	8.00 to 9.00	> 9.00	> 9.00	> 9.00	> 9.00	> 9.00	> 9.00	8.00 to 9.00	> 9.00	> 9.00	8.00 to 9.00	8.00 to 9.00	> 9.00	> 9.00	8.00 to 9.00	8.00 to 9.00	> 9.00	> 9.00	8.00 to 9.00	pIC50 (A549; [1]): 8.00 to 9.00; pIC50 (AN3-CA): > 9.00
CCN1CCN(c2cccc(Nc3ncc(F)c(-n4cc(C(N)=O)c5cc(OC)ccc54)n3)c2)CC1 [Compound 152, 1-{2-[3-(4-ethyl-piperazin-1-yl)-phenylamino]-5-fluoro-pyrimidin-4-yl}-5-methoxy-1H-indole-3-carboxamide]	8.00 to 9.00	8.00 to 9.00	> 9.00	> 9.00	> 9.00	8.00 to 9.00	> 9.00	> 9.00	8.00 to 9.00	8.00 to 9.00	> 9.00	8.00 to 9.00	8.00 to 9.00	> 9.00	> 9.00	8.00 to 9.00	8.00 to 9.00	8.00 to 9.00	> 9.00	8.00 to 9.00	pIC50 (A549; Homo sapiens, A549, read-out: Inhibitory activity (IC50) on growth in vitro, A549): 8.00 to 9.00; pIC50 (AN3-CA): > 9.00

Further lines, with some results ahead:

pIC50 (NCI-H460)	pIC50 (KYSE70)	pIC50 (MFM-223)	pIC50 (NCI-H1581)	pIC50 (BT-474)	pIC50 (8305C)	pIC50 (MCF7)	pIC50 (JIMT-1)	pIC50 (Colo205)	pIC50 (B-CPAP)	pIC50 (Sk-ov-3)	pIC50 (PC-9)	pIC50 (NCI-N87)	pIC50 (BT-549)	pIC50 (CA Ski)	pIC50 (LN229)	pIC50 (HCT-116)	pIC50 (KG-1)	pIC50 (NCI-H1781)	SMILES	pIC50 (NCI-H1993)	also measured
6.00 to 7.00	6.00 to 7.00	7.00 to 8.00	7.00 to 8.00	7.00 to 8.00	7.00 to 8.00	7.00 to 8.00	7.00 to 8.00	6.00 to 7.00	7.00 to 8.00	7.00 to 8.00	6.00 to 7.00	6.00 to 7.00	7.00 to 8.00	7.00 to 8.00	6.00 to 7.00	6.00 to 7.00	7.00 to 8.00	7.00 to 8.00	Cc1cc(Nc2ncc(Cl)c(-n3cc(C(N)=O)c4ccccc43)n2)ccc1N1CCN(C(C)C)CC1 [Compound 60, 1-{5-chloro-2-[4-(4-isopropyl-piperazin-1-yl)-3-methyl-phenylamino]-pyrimidin-4-yl}-1H-indole-3-carboxamide]	–	–
8.00 to 9.00	8.00 to 9.00	> 9.00	> 9.00	> 9.00	> 9.00	> 9.00	> 9.00	8.00 to 9.00	> 9.00	> 9.00	8.00 to 9.00	8.00 to 9.00	> 9.00	> 9.00	> 9.00	8.00 to 9.00	> 9.00	> 9.00	CC(C)N1CCN(c2cccc(Nc3ncc(F)c(-n4cc(C(N)=O)c5ccccc54)n3)c2)CC1 [Compound 144, 1-{5-fluoro-2-[3-(4-isopropyl-piperazin-1-yl)-phenylamino]-pyrimidin-4-yl}-1H-indole-3-carboxamide]	8.00 to 9.00	pIC50 (A549; [1]): 8.00 to 9.00; pIC50 (AN3-CA): > 9.00
8.00 to 9.00	8.00 to 9.00	> 9.00	> 9.00	> 9.00	8.00 to 9.00	> 9.00	> 9.00	8.00 to 9.00	8.00 to 9.00	> 9.00	8.00 to 9.00	8.00 to 9.00	> 9.00	> 9.00	8.00 to 9.00	8.00 to 9.00	8.00 to 9.00	> 9.00	CCN1CCN(c2cccc(Nc3ncc(F)c(-n4cc(C(N)=O)c5cc(F)ccc54)n3)c2)CC1 [Compound 161, 1-{2-[3-(4-ethyl-piperazin-1-yl)-phenylamino]-5-fluoro-pyrimidin-4-yl}-5-fluoro-1H-indole-3-carboxamide]	7.00 to 8.00	pIC50 (A549; [1]): 8.00 to 9.00
